Data from patent US20220241412A1, “COMBINATION THERAPIES USING CDK INHIBITORS” (Pfizer Inc., priority 2019, published 2022).

Columns and labels:
Assay type in all cases: in vivo
[1] = system: 4T1 tumor cells; test: 4T1 syngeneic mouse tumor model, PF-06873600 with checkpoint antibodies (Example 7)
Description: 4T1 cells were obtained from American Type Culture Collection (ATCC) and cultured in Roswell Park Memorial Institute (RPMI1640) supplemented with 10% fetal bovine serum (FBS). All cells were maintained in a humidified incubator at 37° C. with 5% carbon dioxide (CO2). Female C57/BL6 mice were obtained from Jackson Laboratories at 8 weeks of age. To generate the syngeneic model, 30,000 4T1 tumor cells were subcutaneously implanted into the right flank of […]. Tumor bearing mice were randomized into four treatment groups based on average tumor sizes of approximately 70 mm^3 per group. Study groups included vehicle, 30 mg/kg PF-06873600 (CDK 2/4/6 inhibitor) twice daily by oral gavage, combination of 10 mg/kg anti-PD-1 antibody (PF-06937004) with 5 mg/kg anti-OX40 antibody (PF-07201252) and with 3 mg/kg anti-4-1BB antibody (PF-07218859) all administered by IP injection, and the combination of PF-06873600, anti-PD-1 antibody, anti-OX40 antibody and anti-41-BB antibody dosed as described in the cohorts above. […]
(§1) Tumor volumes were measured three times a week. Tumor volume was calculated based on two-dimensional caliper measurement with cubic millimeter volume calculated using the formula (length×width2)×0.5. […] Statistical significance determined using the Holm-Sidak method, with alpha=0.05.

[2] = system: MC38 tumor cells; test: MC38 syngeneic mouse tumor model, PF-06873600 with checkpoint antibodies (Example 2); conditions: for tumor growth inhibition (in words): MC38 model, day 27 post-treatment initiation; for CR % on day 27: complete response; for CR % on day 27 / TGI % on day 27: day 27, s.c. MC38 tumors in female C57/BL6 mice, doses as in Table 10; for TGI % on day 27: tumor growth inhibition
Description: MC38 cells were obtained from American Type Culture Collection (ATCC) and cultured in Roswell Park Memorial Institute (RPMI1640) supplemented with 10% fetal bovine serum (FBS). All cells were maintained in a humidified incubator at 37° C. with 5% carbon dioxide (CO2). Female C57/BL6 mice were obtained from Jackson Laboratories at 8 weeks of age. To generate the syngeneic model, 0.5 million MC38 tumor cells were subcutaneously implanted into the right flank of female C57/BL6 mice. Tumor bearing mice were randomized into nine treatment groups based on average tumor sizes of approximately 70 mm^3 per group, on Day 9 post tumor cell implantation. Study groups included vehicle, 30 mg/kg PF-06873600 (CDK 2/4/6 inhibitor) twice daily by oral gavage, avelumab (anti-PD-L1 antibody, PF-06834635) administered by intraperitoneal (IP) injection, 10 mg/kg, combination of avelumab administered at 10 mg/kg with anti-OX40 antibody (PF-07201252) administered at 5 mg/kg by IP injection, combination of anti-PD-L1 antibody administered at 10 mg/kg with anti-4-1BB antibody (PF-07218859) administered at 3 mg/kg by IP injection, combination of anti-PD-L1 antibody as described above with PF-06873600 administered at 30mg/kg twice daily by oral gavage, combination of anti-PD-L1 antibody and anti-OX40 antibody as described above with PF-06873600 administered at 30 mg/kg twice daily by oral gavage, combination of anti-PD-L1 antibody with anti-4-1BB antibody as described above with PF-06873600 administered at 30mg/kg twice daily by oral gavage and combination of anti-PD-L1 antibody, anti-OX40 antibody and anti-41-BB antibody as described above with PF-06873600 administered at 30 mg/kg twice daily by oral gavage. All antibodies were administered as three doses; one every three days after the study initiation. All antibody formulations are phosphate buffered saline based while PF-06873600 was administered in a 0.5% methocel/Tween suspension.
Tumor volumes were measured three times a week. Tumor volume was calculated based on two-dimensional caliper measurement with cubic millimeter volume calculated using the formula (length×width2)×0.5. Mice were sacrificed when the tumor volumes reached 2000 mm^3, which was the survival endpoint for this study. Survival curves were plotted using GraphPad Prism 7 software. Statistical significance determined using the Holm-Sidak method, with alpha=0.05.

[3] = system: MC38 tumor cells; test: MC38 syngeneic mouse tumor model, palbociclib with checkpoint antibodies (Example 1)
Description: MC38 cells were obtained from American Type Culture Collection (ATCC) and cultured in Roswell Park Memorial Institute (RPMI1640) supplemented with 10% fetal bovine serum (FBS). All cells were maintained in a humidified incubator at 37° C. with 5% carbon dioxide (CO2). Female C57/BL6 mice were obtained from Jackson Laboratories at 8 weeks of age. To generate the syngeneic model, 0.5 million MC38 tumor cells were subcutaneously implanted into the right flank of female C57/BL6 mice. Tumor bearing mice were randomized into four treatment groups based on average tumor sizes of approximately 70 mm^3 per group, on Day 9 post tumor cell implantation. […]
as §1

C[C@@]1(O)CCC[C@H]1n1c(=O)c(C(F)F)cc2cnc(NC3CCN(S(C)(=O)=O)CC3)nc21 [PF-06873600, 6-(difluoromethyl)-8-((1R,2R)-2-hydroxy-2-methylcyclopentyl)-2-(1-(methylsulfonyl)piperidin-4-ylamino)pyrido[2,3-d]pyrimidin-7(8H)-one]
tumor growth inhibition (in words) ([1]; 4T1 model, day 18 post-treatment initiation): significantly inhibited tumor growth | TGI % on day 27 ([1]; tumor growth inhibition, s.c. 4T1 tumors in female C57/BL6 mice, doses as in Table 16): 66% | tumor growth inhibition (in words) [2]: did not significantly inhibit tumor growth | CR % on day 27 [2]: 0% | TGI % on day 27 [2]: −7%

CC(=O)c1c(C)c2cnc(Nc3ccc(N4CCNCC4)cn3)nc2n(C2CCCC2)c1=O [palbociclib, 6-acetyl-8-cyclopentyl-5-methyl-2-(5-piperazin-1-yl-pyridin-2-ylamino)-8H-pyrido[2,3-d]pyrimidin-7-one]
tumor growth inhibition (in words) ([3]; MC38 model, day 27 post-treatment initiation): did not significantly inhibit tumor growth | TGI % on day 27 ([3]; tumor growth inhibition, day 27, s.c. MC38 tumors in female C57/BL6 mice, doses as in Table 8): 29%

PF-06834635: avelumab (anti-PD-L1 antibody, PF-06834635)
tumor growth inhibition (in words) [2]: did not significantly inhibit tumor growth | CR % on day 27 [2]: 0% | TGI % on day 27 [2]: 9%
